A word on the IC50: it is the midpoint of a concentration-inhibition curve.

For 32 compounds, IC50 results are on record in patent US6916923B2 (Hoffmann-La Roche Inc., priority 1999, dated 2005).

Assay [1] deals with T1, Recombinant active human Cyclin E/CDK2 complexes (Homo sapiens, UniProt P24941).
T1 construct: made in house; host or cells: insect cells
The experiment in a line: CDK2 FlashPlate Assay (inhibition of Rb phosphorylation). It is filed as biochemical. To be noted: Cyclin E/CDK2, Rb substrate, 33P-ATP, 25 minutes at room temperature; read-out: Inhibition of Cdk2 - IC50 Range. On the procedure:
To determine inhibition of CDK2 activity, purified recombinant retinoblastoma (Rb) protein was coated on 96 well FlashPlates (New England Nuclear, Boston, Mass.). Rb is a natural substrate for phosphorylation by CDK2 (Herwig and Strauss Eurr. J. Biochem., Vol. 246 (1997) pp. 581-601 and references therein). Recombinant active human Cyclin E/CDK2 complexes were partially purified from extracts of insect cells. The active Cyclin E/CDK2 was added to the Rb-coated FlashPlates along with ^33P-ATP and dilutions of test compounds. Plates were incubated for 25 minutes at room temperature with shaking, then washed and counted in the Topcount scintillation counter (Packard Instrument Co., Downers Grove, Ill.). Dilutions of test compounds were tested in duplicate in each assay. The percent inhibition of Rb phosphorylation, which is a measure of the inhibition of CDK2 activity, was determined according to the following formula: [formula] where “test compound” refers to the average counts per minute of the test duplicates, “nonspecific” refers to the average counts per minute when no Cyclin E/CDK2 was added, and “total” refers to the average counts per minute when no compound was added.

Assay [2] concerns colon adenocarcinoma line SW480. The experiment in a line: SW480 cell-based antiproliferative (MTT) assay. To be noted: Homo sapiens, SW480, 144 h, 1000 cells per well, 6 days post addition of test compound, read-out: Antiproliferative Activity SW480 (colon) Assay - IC50 Range. On the procedure:
(§1) The estrogen receptor negative epithelial breast carcinoma line (MDA-MB-435) was purchased from American Type Cell Culture Collection (ATCC; Rockville, Md.) and was grown in the medium recommended by ATCC. For analysis of the effect of the test compounds on growth of these cells, the cells were plated at 2000 cells per well in a 96-well tissue culture plate, and were incubated overnight at 37° C. with 5% CO2. The next day, the test compounds were dissolved in 100% dimethyl sulfoxide (DMSO) to yield a 10 mM stock solution. Each compound was diluted with sterile medium to 1 mM in a sufficient quantity to yield a final concentration of 120 μM. The compounds were then serially diluted in medium with 1.2% DMSO. One-fourth final volume of the diluted compounds was transferred to 96 well plates. Test compounds were assayed in duplicate. DMSO was added to a row of “control cells” such that the final concentration of DMSO in each well was 0.3%. Wells to which no cells were added served as the “blank.” Wells to which no inhibitor was added served as “no inhibitor control”. The plates were returned to the incubator, and 5 days post addition of test compound, were analyzed as described below.
(§2) 3-(4,5-Dimethylthiazole-2-yl)-2,5-diphenyl-2H-tetrazolium bromide (thiazolyl blue; MTT) was added to each well to yield a final concentration of 1 mg/mL. The plates were then incubated at 37° C. for 3 hours. The plates were centrifuged at 1000 rpm for 5 minutes prior to aspiration of the MTT-containing medium. The MTT-containing medium was then removed and 100 μL 100% ethanol was added to each well to dissolve the resulting formazan metabolite. To ensure complete dissolution, plates were shaken for 15 minutes at room temperature. Absorbencies were read in a microtiter plate reader (Molecular Dynamics) at a wavelength of 570 nm with a 650 nm reference. Percent inhibition was calculated by subtracting the absorbance of the blank (no cell) wells from all wells, then subtracting the division of the average absorbance of each test duplicate by the average of the controls from 1.00. Inhibitory concentrations (IC50) were determined from the linear regression of a plot of the logarithm of the concentration versus the percent inhibition.
The colon adenocarcinoma line SW480 and the colon carcinoma line HCT-116 also were obtained from the ATCC and were tested according to the same protocol provided above for MDA-MB435 cell based assay with the following modifications. Cell line SW480 was plated at 1000 cells per well and analyzed at 6 days post addition of the test compound. Cell line HCT-116 was plated at 1000 cells per well and analyzed at 4 days post addition of test compound.

The test system of assay [3] is estrogen receptor negative epithelial breast carcinoma line (MDA-MB-435). The assay is described as follows: MDA-MB-435 cell-based antiproliferative (MTT) assay. To be noted: Homo sapiens, MDA-MB-435, 120 h, 2000 cells per well, 5 days post addition of test compound, read-out: Antiproliferative Activity of MDA-MB435 (breast) Assay - IC50 Range. As to the method:
as §1, §2

Consider `Clc1ccc2c(c1)C(c1ccccc1Cl)=Nc1c[nH]nc1N2` [Compound A4, 5-(2-chlorophenyl)-7-chloro-pyrazolo[3,4][1,4]benzodiazepine], for which the IC50 in assay [1] was in the range of 10000 to 30000 nM.
Still for that read-out and setting: the figure for `Clc1ccc2c(c1)C(c1ccccc1)=Nc1c[nH]nc1N2` [Compound A6, 5-phenyl-7-chloro-pyrazolo[3,4][1,4]benzodiazepine] is 1000 to 9990 nM.
Same read-out and setting: the figure for `Fc1ccccc1C1=Nc2c[nH]nc2Nc2ccc(Cl)cc21` [Compound A7, 5-(2-fluorophenyl)-7-chloro-pyrazolo[3,4][1,4]benzodiazepine] is 1000 to 9990 nM.
Take `Fc1ccc2c(c1)C(c1ccccc1F)=Nc1c[nH]nc1N2` [Compound A11, 5-(2-fluorophenyl)-7-fluoro-pyrazolo[3,4][1,4]benzodiazepine]: the results for the IC50 in assay [1] and in assay [2] were 1000 to 9990 nM and 10000 to 30000 nM, respectively.
Consider `O=[N+]([O-])c1ccc2c(c1)C(c1ccccc1C(F)(F)F)=Nc1c[nH]nc1N2` [Compound A17, 5-(2-trifluoromethylphenyl)-7-nitro-pyrazolo[3,4][1,4]benzodiazepine], for which the IC50 in assay [1] is 10 to 990 nM.
The same measure, in the same setting: the figure for `COC(=O)c1ccc2c(c1)C(c1ccccc1)=Nc1c[nH]nc1N2` [Compound A18, 5-phenyl-7-carbomethoxy-pyrazolo[3,4][1,4]benzodiazepine] is 1000 to 9990 nM.
The same measure, in the same setting: then `Fc1ccccc1C1=Nc2c[nH]nc2Nc2ccc(I)cc21` [Compound A19, 5-(2-fluorophenyl)-7-iodo-pyrazolo[3,4][1,4]benzodiazepine], with 1000 to 9990 nM; and `CCOC(=O)c1ccc2c(c1)C(c1ccccc1F)=Nc1c[nH]nc1N2` [Compound A20, 5-(2-fluorophenyl)-7-carboethoxy-pyrazolo[3,4][1,4]benzodiazepine], with 10 to 990 nM.
In the case of `CCOC(=O)c1[nH]nc2c1N=C(c1ccccc1Cl)c1cc([N+](=O)[O-])ccc1N2` [Compound B2, 3-carboethoxy-5-(2-chlorophenyl)-7-nitro-pyrazolo[3,4][1,4]benzodiazepine], the results for the IC50 in assay [1] and in assay [3] were 1000 to 9990 nM and 10000 to 30000 nM, respectively.
For the compound `CC(C)Cc1[nH]nc2c1N=C(c1ccccc1Cl)c1cc([N+](=O)[O-])ccc1N2` [Compound B11, 3-(2-methylpropyl)-5-(2-chlorophenyl)-7-nitro-pyrazolo[3,4][1,4]benzodiazepine], in assay [1], the IC50 is 1000 to 9990 nM.
As for `O=[N+]([O-])c1ccc2c(c1)C(c1ccccc1Cl)=Nc1c(n[nH]c1C(F)(F)F)N2` [Compound B12, 3-trifluoromethyl-5-(2-chlorophenyl)-7-nitro-pyrazolo[3,4][1,4]benzodiazepine], the IC50 in assay [1] fell in the range of 10 to 990 nM; in assay [3], 1100 to 9990 nM.
Take `O=[N+]([O-])c1ccc2c(c1)C(c1ccccc1Cl)=Nc1c(n[nH]c1-c1nccs1)N2` [Compound B13, 3-(1-thiazolyl)-5-(2-chlorophenyl)-7-nitro-pyrazolo[3,4][1,4]benzodiazepine]: the IC50 in assay [1] is 10 to 990 nM.
As to `O=[N+]([O-])c1ccc2c(c1)C(c1ccccc1Cl)=Nc1c(n[nH]c1-c1c[nH]cn1)N2` [Compound B14, 3-(4-imidazolyl)-5-(2-chlorophenyl)-7-nitro-pyrazolo[3,4][1,4]benzodiazepine], the concentration for half-maximal inhibition (IC50) in assay [1] fell in the range of 10 to 990 nM; in assay [3], 1100 to 9990 nM.
With `O=[N+]([O-])c1ccc2c(c1)C(c1ccccc1Cl)=Nc1c(n[nH]c1-c1cc[nH]n1)N2` [Compound B15], the IC50 in assay [1] fell in the range of 10 to 990 nM; in assay [3], 10000 to 30000 nM.
Regarding `CCC(C)c1[nH]nc2c1N=C(c1ccccc1Cl)c1cc([N+](=O)[O-])ccc1N2` (centres unmarked) [Compound B17, 3-(1-methylpropyl)-5-(2-chlorophenyl)-7-nitro-pyrazolo[3,4][1,4]benzodiazepine], in assay [1], the IC50 was 10 to 990 nM.
With `Cc1[nH]nc2c1N=C(c1ccccc1F)c1cc(F)ccc1N2` [Compound B26, 3-methyl-5-(2-fluorophenyl)-7-fluoro-pyrazolo[3,4][1,4]benzodiazepine], the IC50 in assay [1] was in the range of 10 to 990 nM; in assay [2], 10 to 1000 nM.
Regarding `Cc1[nH]nc2c1N=C(c1ccccc1)c1cc([N+](=O)[O-])ccc1N2` [Compound B27, 3-methyl-5-phenyl-7-nitro-pyrazolo[3,4][1,4]benzodiazepine], the results for the concentration for half-maximal inhibition (IC50) in assay [1] and in assay [2] were 10 to 990 nM and 10 to 1000 nM, respectively.
Regarding `Cc1[nH]nc2c1N=C(c1ccccc1)c1ccccc1N2` [Compound B28, 3-methyl-5-phenyl-pyrazolo[3,4][1,4]benzodiazepine], in assay [1], the IC50 was in the range of 10 to 990 nM.
For `Cc1[nH]nc2c1N=C(c1ccccc1F)c1cc(Cl)ccc1N2` [Compound B32, 3-methyl-5-(2-fluorophenyl)-7-chloro-pyrazolo[3,4][1,4]benzodiazepine], the IC50 in assay [1] lay within 10 to 990 nM; in assay [2], 1100 to 9990 nM.
The like results for `Cc1[nH]nc2c1N=C(c1ccccc1)c1cc(I)ccc1N2` [Compound B33, 3-methyl-5-phenyl-7-iodo-pyrazolo[3,4][1,4]benzodiazepine] were, in that order, 1000 to 9990 nM and 10000 to 30000 nM.
On to `O=C(c1ccc2c(c1)C(c1ccccc1F)=Nc1c[nH]nc1N2)N(CCO)CCO` [Compound C3, N,N-bis-(2-hydroxyethyl)-5-(2-fluorophenyl)-pyrazolo[3,4][1,4]benzodiazepine-7-carboxamide], for which the IC50 in assay [1] was in the range of 1000 to 9990 nM.
Consider `CC(C)c1[nH]nc2c1N=C(c1ccccc1Cl)c1cc(N)ccc1N2` [Compound C6, 3-(1-methylethyl)-5-(2-chlorophenyl)-7-amino-pyrazolo[3,4][1,4]benzodiazepine], for which the IC50 in assay [1] was in the range of 10 to 990 nM; in assay [3] it was 1100 to 9990 nM.
With `CN(C)C(=O)c1[nH]nc2c1N=C(c1ccccc1Cl)c1cc([N+](=O)[O-])ccc1N2` [Compound C11, N,N-dimethyl-5-(2-chlorophenyl)-7-nitro-pyrazolo[3,4][1,4]benzodiazepine-3-carboxamide], the IC50 in assay [1] is 1000 to 9990 nM.
As for `Cc1[nH]nc2c1N=C(c1ccccc1F)c1cc(C(N)=O)ccc1N2` [Compound C19, 3-methyl-5-(2-fluorophenyl)-pyrazolo[3,4][1,4]benzodiazepine-7-carboxamide], the IC50 in assay [1] is 10 to 990 nM; in assay [2] it was 10 to 1000 nM.
The like results for `Cc1[nH]nc2c1N=C(c1ccccc1C(F)(F)F)c1cc([N+](=O)[O-])ccc1N2` [Compound D2] were, in that order, 10 to 990 nM and 10 to 1000 nM.
`Cn1cccc1-c1[nH]nc2c1N=C(c1ccccc1Cl)c1cc([N+](=O)[O-])ccc1N2` [Compound D21]: the IC50 in assay [1] was in the range of 1000 to 9990 nM.
Take `O=C(O)c1ccc2c(c1)C(c1ccccc1F)=Nc1c[nH]nc1N2` [Compound D22]: in assay [1], the IC50 fell in the range of 1000 to 9990 nM.
Consider `Cc1ccc(-c2[nH]nc3c2N=C(c2ccccc2Cl)c2cc([N+](=O)[O-])ccc2N3)cc1` [Compound D24], for which the IC50 in assay [1] fell in the range of 1000 to 9990 nM.
Still for that read-out and setting: the figure for `Cc1ccc(-c2[nH]nc3c2N=C(c2ccccc2Cl)c2cc([N+](=O)[O-])ccc2N3)s1` [Compound D26] is 1000 to 9990 nM.
The same measure, in the same setting: the figure for `CN(C)c1ccc(-c2[nH]nc3c2N=C(c2ccccc2Cl)c2cc([N+](=O)[O-])ccc2N3)cc1` [Compound D28] is 1000 to 9990 nM; for `O=[N+]([O-])c1ccc2c(c1)C(c1ccccc1)=Nc1c(n[nH]c1-c1ncc[nH]1)N2` [Compound D34] it is 1000 to 9990 nM; for `O=[N+]([O-])c1ccc2c(c1)C(c1ccccc1Cl)=Nc1c(n[nH]c1-c1ccccc1[N+](=O)[O-])N2` [Compound D39] it is 10000 to 30000 nM.
